# Values joined by “and” are separate entries in the source; they are usually repeats but may differ in a detail not shown here. Equal entries are not always repeated. Where two headings read alike, the source gives them in different places.
# Tests used:
# [1] = test system: Escherichia coli (strain BW25113); details: paper filter disks moistened with 0.75 M generated hydrogen peroxide in PBS on seeded LB agar, 37° C. for 18-24 hr, qualitative
# Procedure: A plate with Lysogeny Broth (LB) Agar media was evenly seeded with a 1 Optical Density (OD) culture of Escherichia coli (strain BW25113). […] Plates were left to dry and incubated at 37° C. for 18-24 hr.
# E. coli [2] = assay: Killing (antimicrobial) test, CFU count; format: cell-based, Escherichia coli
# Procedure: The initial colony forming units per mL (CFU/mL) were counted by plating 50 uL of a dilution 1:10,000 of the culture on LB agar plates. Next, 3 ml of the bacterial culture were treated with 1 ml of separately generated H2O2 0.75 M such that the final concentration of H2O2 in the bacteria containing plates reached around 0.25 M. To count the bacterial survival after treatment, 100 μl of 1:10,000 dilution were plated on LB agar plates and incubated at 37° C. for 18-24 hrs. The percentage of killed bacteria was calculated using the initial CFU as 100% and subtracting the recovered CFU after treatment.
# E. coli [3] = details: 0.5 mL of 0.05 OD culture, 5 mA electric current for 30 min; triplicate experiments
# Procedure: To test this an E. coli culture was grown from a single colony in LB media at 37° C., until reaching 0.05 OD. Next, 0.5 mL of this culture was treated with 5 mA of electric current for 30 min. The counting of CFU/ml before and after applying the current for 30 min was done by plating 50 and 100 μL of 1:10,000 dilution respectively on LB agar plates and incubating at 37° C. for 18-24 hrs.
compound,measurement,setting,value
OO [hydrogen peroxide],zone of growth inhibition,[1],disinfection in region of clearance
same,zone of growth inhibition,[1]; listed as H2O2,zone of growth inhibition
same,Peroxide Treated (CFU x 10^6),"E. coli [2]; 3 ml culture (0.05 OD) + 1 ml separately generated H2O2 0.75 M, final around 0.25 M, triplicate experiments",1.2 CFU x 10^6 and 0.7 CFU x 10^6
same,% Killed (%),"E. coli [2]; final H2O2 around 0.25 M, initial CFU as 100%, triplicate experiments",96.1% and 96% and 94.2%
same,rate at which bacteria population is killed,"E. coli [2]; from triplicate antimicrobial test, Table 4",2.5 % CFU/μmol H2O2
same,% Killed (%),E. coli [3],99.6%

# — patent US20240033502A1 (Wesbot, LLC, priority 2022, published 2024)
